Experiment [1] has as its system branched chain alpha-ketoacid decarboxylase (BCKA). Conditions: cited from earlier work.
Experiment [2] addresses T1, adh1 from Geobacillus thermoglucosidasius M10EXG (Geobacillus sp. M10EXG, UniProt Q6RS93).
T1 sequence (Q6RS93 1-340): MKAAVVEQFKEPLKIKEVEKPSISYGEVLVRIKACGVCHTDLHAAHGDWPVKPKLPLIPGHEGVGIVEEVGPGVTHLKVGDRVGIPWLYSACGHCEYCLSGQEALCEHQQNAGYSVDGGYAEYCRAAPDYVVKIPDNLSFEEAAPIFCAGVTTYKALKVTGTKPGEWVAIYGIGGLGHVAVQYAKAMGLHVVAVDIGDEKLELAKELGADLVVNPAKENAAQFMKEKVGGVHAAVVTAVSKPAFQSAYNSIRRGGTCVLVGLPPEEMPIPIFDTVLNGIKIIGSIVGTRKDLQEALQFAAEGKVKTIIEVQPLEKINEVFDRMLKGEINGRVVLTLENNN
The experiment is described as follows: ADH enzyme assay of E. coli expressed Adh1 enzyme (084). Conditions: reduction by Adh1 enzyme (084) expressed in E. coli. It is filed as biochemical. As for the experimental part:
Alcohol (ADH) and aldehyde (ALD) dehydrogenase was assayed in the reductive direction using a procedure adapted from several literature sources (Durre et al., FEMS Microbiol. Rev. 17:251-262 (1995); Palosaari and Rogers, J. Bacteriol. 170:2971-2976 (1988) and Welch et al., Arch. Biochem. Biophys. 273:309-318 (1989)). The oxidation of NADH is followed by reading absorbance at 340 nm every four seconds for a total of 240 seconds at room temperature. The reductive assays were performed in 100 mM MOPS (adjusted to pH 7.5 with KOH), 0.4 mM NADH, and from 1 to 50 μl of cell extract. The reaction is started by adding the following reagents: 100 μl of 100 mM acetaldehyde or butyraldehyde for ADH, or 100 μl of 1 mM acetyl-CoA or butyryl-CoA for ALD. The Spectrophotometer is quickly blanked and then the kinetic read is started. The resulting slope of the reduction in absorbance at 340 nm per minute, along with the molar extinction coefficient of NAD(P)H at 340 nM (6000) and the protein concentration of the extract, can be used to determine the specific activity.
Multiple alcohol dehydrogenases were screened for their ability to catalyze the reduction of 4-hydroxybutanal to 14-BDO.
The Adh1 enzyme (084) expressed very well from its native gene in E. coli (see FIG. 8A).

The subject of experiment [3] is aminotransferase from Leishmania mexicana. Conditions: activity considered 100% on tyrosine; cited from earlier work.

Each structure is given as a SMILES string.

For the compound `O=C(O)CCC(=O)C(=O)O` [2-Oxoglutarate], the “decarboxylation activity relative to other branched-chain substrates” value in experiment [1] is 5%.

Turning to `O=CCCCO` [Gene 4HB-aldehyde, 4-hydroxybutyraldehyde], in experiment [2], the Km is 4000 µM.

For `CCCC=O` [butyraldehyde], the Michaelis-Menten constant (Km) in experiment [2] was 1200 µM.

With `CC(C)C[C@H](N)C(=O)O` [leucine], in experiment [3], the aminotransferase activity was 25%.

`CSCC[C@H](N)C(=O)O` [methionine]: in experiment [3], the aminotransferase activity is on record as 25%.

Consider `N[C@@H](Cc1ccccc1)C(=O)O` [phenylalanine], for which the aminotransferase activity in experiment [3] is on record as 90%.

For the compound `N[C@@H](Cc1c[nH]c2ccccc12)C(=O)O` [tryptophan], the aminotransferase activity in experiment [3] is 85%.

For `N[C@@H](Cc1ccc(O)cc1)C(=O)O` [tyrosine], in experiment [3], the aminotransferase activity is recorded as 100%.

Source of the values: patent publication US10662451B2, “Microorganisms and methods for the coproduction 1,4-butanediol and gamma-butyrolactone” (priority 2009, dated 2020).
